Results reported in patent US20150299233A1, “COMPOSITIONS AND METHODS COMPRISING RHENIUM FOR THE TREATMENT OF CANCERS” (Massachusetts Institute of Technology, priority 2014, published 2015).
Read-outs that look alike come from different tables or passages of the source.

Experiments:
[1] = test system: A549 cells; assay: Intracellular ROS assay (DCFH-DA, flow cytometry); format: cell-based, human; settings: 1, 2, shikonin 20 μM for 12 h; H2O2 1 mM for 1 h
Protocol: Characterization of Necroptotic Features. Having established that necrosome formation is a determinant of 1 and 2 activity, additional studies were performed to understand the cascade of events leading from necrosome formation to cell death. Necrosomes generate abnormally high levels of mitochondrial ROS, leading to ATP depletion and eventual degradation of the mitochondrial membrane potential. With this fact in mind, intracellular ROS production was quantified by flow cytometry using 6-carboxy-2′,7′-dichlorodihydrofluorescein diacetate (DCFH-DA), a well-established ROS indicator.
In FIG. 2: (A) Representative histograms displaying the green fluorescence emitted by DCFH-DA-stained A549 cells (i) and A549 cells treated with 1(20 μM for 12 h) (iii) or 1 (20 μM for 12 h) with nectrostatin-1 (60 μM for 12 h) (ii). (B) Representative histograms displaying the green fluorescence emitted by DCFH-DA-stained A549 cells (i) and A549 cells treated with 2 (20 μM for 12 h) (iii) or 2 (20 μM for 12 h) with nectrostatin-1 (60 μM for 12 h) (ii). (C) Representative histograms displaying the green fluorescence emitted by DCFH-DA-stained A549 cells (i) and A549 cells treated withH2O2 (1mM for 1 h) (iii). (D) Representative histograms displaying the green fluorescence emitted by DCFH-DA-stained A549 cells (i) and A549 cells treated with shikonin (20 μM for 12 h) (iii).
Intracellular ROS Assay. Untreated and treated A549 cells (1.5×10^6 cells/well) grown in six-well plates were incubated with 6-carboxy-2′,7′-dichlorodihydrofluorescein diacetate (20 μM) for 30 min. The cells were then washed with PBS (1 mL x 3), harvested, and analyzed by using a FACSCalibur-HTS flow cytometer (BD Biosciences) (20 000 events per sample were acquired). The FL1 channel was used to assess intracellular ROS levels. Cell populations were analyzed using the FlowJo software (Tree Star).

[2] = test system: cisplatin-sensitive cells (A2780); assay: MTT cytotoxicity assay, A2780 cells; format: cell-based, human; settings: Table A; average of three independent determinations; read-out: IC50 A2780 (ovarian)
[3] = test system: cisplatin-resistant ovarian carcinoma cells (A2780CP70); assay: MTT cytotoxicity assay, A2780CP70 cells; format: cell-based, human
[4] = test system: U2OS; settings: Table 1; 72 h exposure; value taken from ref 4S; read-out: IC50 U2OS bone osteosarcoma; cited from earlier work
[5] = test system: HeLa cervical adenocarcinoma cells; assay: MTT cytotoxicity assay, HeLa cells; format: cell-based, human
[6] = test system: MRC-5; assay: MTT cytotoxicity assay, MRC-5 normal lung fibroblasts; format: cell-based, human; settings: Table A; average of three independent determinations; read-out: IC50 MRC5 (lung normal)
Protocol: (§1) In vitro toxicity of the rhenium (v) oxo complexes, 1 and 2 towards a panel of human cell lines was determined using the colorimetic MTT [[3-(4,5-dimethylithiazol-2-yl)-2,5-diphenyltetrazolium bromide] assay.
(§2) The in vitro effect of rhenium(V) oxo complexes 1 and 2 toward a panel of human cell lines was determined by the colorimetric MTT [3-(4,5-dimethylthiazol-2-yl)-2,5-diphenyltetrazolium bromide] assay. […] The IC50 values, or concentration required to induce 50% cell death, were derived from dose—response curves and are summarized in Table 1.
(§3) Cells (2×10^3 cells/well) were seeded in a 96-well plate. […] 1 and 2 were prepared as 10 mM solutions in DMSO and diluted using media. The final concentration of DMSO in each well was 0.5%, and this amount was also present in the untreated control. After 72 h, the medium was removed, 200 μL of a 0.4 mg/mL solution of MTT in DMEM, RPMI, or McCoy's 5A was added, and the plate was incubated for an additional 1-2 h. The DMEM/MTT, RPMI/MTT, or McCoy's 5A/MTT mixture was aspirated, and 200 μL of DMSO was added to dissolve the resulting purple formazan crystals. The absorbance of the solution wells was read at 550 nm. Absorbance values were normalized to DMSO-containing control wells and plotted as the concentration of test compound versus % cell viability. IC50 values were interpolated from the resulting dose-dependent curves. The reported IC50 values are the average from at least three independent experiments, each of which consisted of six replicates per concentration level.

[7] = test system: DU 145 (prostate carcinoma); assay: MTT cytotoxicity assay, DU 145 cells; format: cell-based, human; settings: Table 2; cisplatin-resistant cell line; 72 h exposure; read-out: IC50 DU 14S prostate carcinoma
[8] = test system: HT-29 (colorectal adenocarcinoma); assay: MTT cytotoxicity assay, HT-29 cells; format: cell-based, human; settings: Table 2; cisplatin-resistant cell line; 72 h exposure
Protocol: Cytotoxicity MTT Assay. […] Cells (2×10^3 cells/well) were seeded in a 96-well plate. […] The final concentration of DMSO in each well was 0.5%, and this amount was also present in the untreated control. After 72 h, the medium was removed, 200 μL of a 0.4 mg/mL solution of MTT in DMEM, RPMI, or McCoy's 5A was added, and the plate was incubated for an additional 1-2 h. The DMEM/MTT, RPMI/MTT, or McCoy's 5A/MTT mixture was aspirated, and 200 μL of DMSO was added to dissolve the resulting purple formazan crystals. The absorbance of the solution wells was read at 550 nm. Absorbance values were normalized to DMSO-containing control wells and plotted as the concentration of test compound versus % cell viability. IC50 values were interpolated from the resulting dose-dependent curves. The reported IC50 values are the average from at least three independent experiments, each of which consisted of six replicates per concentration level.

[9] = test system: MDA-MB-231 (breast adenocarcinoma); assay: MTT cytotoxicity assay, MDA-MB-231 cells; format: cell-based, human; settings: Table 2; cisplatin-resistant cell line; 72 h exposure; read-out: IC50 MDA-M8-231 breast adenocarcinoma
[10] = test system: MRC-5; settings: Table 1; 72 h exposure; value taken from ref 4S; read-out: IC50 MRC-5 lung fibroblast; cited from earlier work
[11] = test system: A549 cells; assay: MTT cytotoxicity assay, A549 cells; format: cell-based, human
Protocol: as §1, §2, §3

[12] = test system: NTERA-2; assay: MTT cytotoxicity assay, NTERA-2 cells; format: cell-based, human; settings: Table 1; 72 h exposure; ± standard deviation; read-out: IC50 NTERA-2 testis carcinoma
[13] = test system: PC-3 (prostate adenocarcinoma); assay: MTT cytotoxicity assay, PC-3 cells; format: cell-based, human; settings: Table 2; cisplatin-resistant cell line; 72 h exposure
[14] = test system: cisplatin-sensitive cells (A2780); settings: Table 1; 72 h exposure; value taken from ref 4S; read-out: IC50 A2780 ovarian carcinoma; cited from earlier work
[15] = test system: U2OS; assay: MTT cytotoxicity assay, U2OS cells; format: cell-based, human; settings: Table A; average of three independent determinations; read-out: IC50 U2OS (bone)
[16] = test system: MCF-7 (breast adenocarcinoma); assay: MTT cytotoxicity assay, MCF-7 cells; format: cell-based, human; settings: Table 2; cisplatin-resistant cell line; 72 h exposure
[17] = test system: confluent A549 cells; assay: MTT cytotoxicity assay, confluent A549 cells; format: cell-based, human; settings: Table 2; confluent cells; 72 h exposure; read-out: IC50 A549 (confluent) lung carcinoma

SMILES	intracellular ROS versus untreated control cells [1]	IC50 [2] [µM]	IC50 ([3]; Table 1, 72 h exposure, ± standard deviation, read-out: IC50 A2780CP70 ovarian carcinoma) [µM]	IC50 ([3]; Table A, average of three independent determinations, read-out: IC50 A280CP70 (ovarian)) [µM]	IC50 [4] [µM]	IC50 ([5]; Table 1, 72 h exposure, ± standard deviation, read-out: IC50 HeLa cervical adenocarcinoma) [µM]	IC50 ([5]; Table A, average of three independent determinations, read-out: IC50 HeLa (cervical)) [µM]	IC50 [6] [µM]	IC50 [7] [µM]	IC50 [8] [µM]	IC50 [9] [µM]	IC50 [10] [µM]	IC50 ([11]; Table 1, 72 h exposure, ± standard deviation, read-out: IC50 A549 lung carcinoma) [µM]	IC50 ([11]; Table A, average of three independent determinations, read-out: IC50 A549 (lung)) [µM]	IC50 [12] [µM]	IC50 [13] [µM]	IC50 [14] [µM]	IC50 [15] [µM]	IC50 [16] [µM]	IC50 [17] [µM]
OO [Compound H2O2, H2O2, reference compound]	significantly higher levels of measurable ROS																			
N.N.[Cl][Pt][Cl] [cisplatin, reference compound]		1.41 ± 0.037	8.42 ± 0.205	8.42 ± 0.205	4.6 ± 0.6	4.1 ± 0.113	4.1 ± 0.011	11.1 ± 1.33	> 100	29.6 ± 1.33	43.6 ± 7.07	5.3 ± 0.6	3.23 ± 0.467	2.74 ± 0.006	0.385 ± 0.049	10.2 ± 0.919	0.7 ± 0.2	4.6 ± 0.6	9.74 ± 0.537	9.42 ± 1.94
